Source: patent US11541061B2, “Neuroblastoma treatment with taurolidine hydrolysis products” (CorMedix Inc., priority 2016, dated 2023)

Tests used:
[1] = mean pharmacokinetic parameters of taurinamide and taurultam (FIGS. 10, 11); settings: in vivo; mean pharmacokinetic parameter, weight-based AUC
Method: FIG. 10 is a chart showing the mean pharmacokinetic parameters of taurinamide; and
FIG. 11 is a chart showing the mean pharmacokinetic parameters of taurultam.
The taurinamide is given with a dosage range of from 5 mg/kg to 280 mg/kg, with optimal range between 5 mg/kg and 60 mg/kg, from once daily through weekly, for an effective period of time based on individual patient response.
The taurultam is given with a dosage range of from 5 mg/kg to 280 mg/kg, with optimal range between 5 mg/kg and 60 mg/kg, from once daily through weekly, for an effective period of time based on individual patient response.

neuroblastoma cell lines = test: in vitro cell viability of neuroblastoma cell lines (FIG. 2); type: cell-based
Description: (§1) The IC50 values are between 80-140 microMolar for neuroblastoma cell lines, and 200 microMolar for normal fibroblasts (see FIG. 2).

healthy fibroblasts (BJ) = test: in vitro cell viability of healthy fibroblasts (FIG. 2); type: cell-based; settings: Fibroblast, normal fibroblasts
Description: as §1

leukemia cell lines = test: in vitro sensitivity of leukemia cell lines compared to healthy lymphocytes (FIG. 1); type: cell-based; settings: leukemia cell lines vs healthy lymphocytes
IMR5 tumors = test: IMR5 neuroblastoma tumors implanted subcutaneously in mice (FIGS. 3-6); type: in vivo; settings: IMR5 tumors implanted subcutaneously in CB57 SCID mice
Description: The efficacy observed with taurolidine treatment of IMR5 cell implants in vivo (FIGS. 3-6), despite IRM5's relatively high IC50 in vitro (FIG. 2), supports the conclusion that the hydrolysis products of taurolidine may have independent anti-neoplastic activity. […] Since it is known that taurolidine metabolizes to taurolidine hydrolysis products in vivo, this would support the conclusion that the hydrolysis products of taurolidine may have significant anti-neoplastic activity against neuroblastoma cells. In fact, it may be that the hydrolysis products of taurolidine have higher efficacy against neuroblastoma cells than taurolidine which has not been hydrolyzed.

SK-N-AS tumors = test: SK-N-AS neuroblastoma tumors implanted subcutaneously in mice (FIGS. 3-8); type: in vivo, CB57 SCID mice
[2] = 5 grams intravenously by 20 minute infusion; cited from earlier work

SMILES | AUC(0-inf) [1] [µg·h/mL] | sensitivity to decrease in viability compared to healthy fibroblasts (neuroblastoma cell lines; neuroblastoma cell lines vs healthy fibroblasts (BJ), in vitro) | IC50 (neuroblastoma cell lines; neuroblastoma cell lines, cell viability in vitro, FIG. 2) [µM] | concentration at which in vitro efficacy is seen (neuroblastoma cell lines; neuroblastoma cell lines, highest two concentrations tested, FIG. 2) | IC50 (healthy fibroblasts (BJ)) [µM] | sensitivity compared to healthy lymphocytes (leukemia cell lines) | efficacy in tumors in vivo (IMR5 tumors) | efficacy in tumors in vivo (SK-N-AS tumors; SK-N-AS tumors implanted subcutaneously in CB57 SCID mice) | overall survival (SK-N-AS tumors; mice implanted with SK-N-AS tumor, vs control) | tumor size (SK-N-AS tumors; mice with SK-N-AS cell line tumors, vs control) | concentration of taurolidine in healthy volunteers [2]
NCCS(N)(=O)=O [Taurinamide, taurinamide] | 313 | – | – | – | – | – | – | – | – | – | –
O=S1(=O)CCN(CN2CCS(=O)(=O)NC2)CN1 [taurolidine] | – | more sensitive | 80 to 140 | above 40 microMolar | 200 | more sensitive | efficacy | measurable efficacy | not statistically different | Statistically significant decreases | NO measurable concentration
